Reference: patent publication US20060063753A1 (priority 2002, published 2006)

Legend:
opiate receptors = details: cited from earlier work
[1] = test system: emesis (retching and vomiting); assay: emesis caused by opioid (morphine) and other proemetic agents (cisplatin) in ferrets; type: in vivo; details: i.p. pre-dosing, morphine 0.125 mg/kg s.c. or cisplatin 5 mg/kg i.p.
Description: Male ferrets (0.9- 1.7 kg) obtained from Leeds University were housed in pairs at 22±1° C. and had free access to food (SDS Diet ‘C’ (E), Special Diet Services, UK) and water. They were housed under artificial lighting with lights on between 07:00 and 21:00 hours. For experimental use, animals were removed from their holding cages and placed individually into observation cages. The animals were allowed free access to water and food. The animals were divided into separate groups of 4 animals per group. Animals were frequently observed throughout the experiments by a trained technician to ensure that the animals remained in good health. In addition, animal behaviour was video recorded for subsequent analysis of emesis (see Rudd et al., 1994). Emesis was characterized by rhythmic abdominal contractions which were either associated with the oral expulsion of solid or liquid material from the gastrointestinal tract (i.e. vomiting) or not associated with the passage of material (i.e. retching movements). The number of highly distinctive abdominal contractions was counted. (+)-Nefopam was dissolved in saline and administered in a volume of 1 ml/kg. […] Observations were recorded over a 4 hr period post-morphine dosing and scored for incidences of retching and vomiting. […] Observations were recorded over the 72 hr period post-cisplatin dosing and scored for incidences of retching and vomiting.

[2] = order of potency (+)-nefopam > (±)-nefopam > (−)-nefopam; cited from earlier work
norepinephrine uptake = details: order of potency (+)-nefopam > (±)-nefopam > (−)-nefopam; cited from earlier work
dopamine uptake = details: order of potency (+)-nefopam > (±)-nefopam > (−)-nefopam; cited from earlier work
serotonin-uptake = details: order of potency (+)-nefopam > (±)-nefopam > (−)-nefopam; cited from earlier work

SMILES	antinociception in animal models of pain and in humans (opiate receptors; animal models of pain and humans)	blockade of antinociception by nalaxone (opiate receptors; nalaxone)	effect on emesis caused by opioid and other recognised proemetic agents [1]	analgesic properties, potency compared with (−)-nefopam [2]	norepinephrine uptake inhibitory properties, potency compared with (−)-nefopam (norepinephrine uptake)	dopamine uptake inhibitory properties, potency compared with (−)-nefopam (dopamine uptake)	serotonin-uptake inhibitory properties, potency compared with (−)-nefopam (serotonin-uptake)
CN1CCOC(c2ccccc2)c2ccccc2C1 (racemic) [nefopam]	induce antinociception	not blocked	able to prevent or diminish emesis				
CN1CCO[C@@H](c2ccccc2)c2ccccc2C1 [(+)-nefopam]				more potent	more potent	more potent	more potent
